Assay results: ChEMBL document CHEMBL1129525 (J Med Chem, 1996)
Blank lines part the entries; values can stand above or below the compound they belong to.

How the values were obtained:
Toxoplasma gondii [1] = experiment: Inhibition of Toxoplasma gondii cell growth; assay type: functional, organism-based
Dihydrofolate reductase [2] = molecular target: T1, Dihydrofolate reductase (Pneumocystis carinii, UniProt P16184)
T1 sequence (P16184 whole entry): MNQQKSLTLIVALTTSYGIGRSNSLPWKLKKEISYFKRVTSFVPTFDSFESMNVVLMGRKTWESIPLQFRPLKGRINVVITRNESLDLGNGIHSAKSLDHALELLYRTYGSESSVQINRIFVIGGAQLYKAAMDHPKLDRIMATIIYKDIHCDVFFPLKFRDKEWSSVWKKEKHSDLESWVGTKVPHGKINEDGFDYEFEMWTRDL
Description: Inhibitory activity against Pneumocystis carinii dihydrofolate reductase

Dihydrofolate reductase [3] = molecular target: T2, Dihydrofolate reductase (Rattus norvegicus, UniProt Q920D2)
T2 sequence (Q920D2 whole entry): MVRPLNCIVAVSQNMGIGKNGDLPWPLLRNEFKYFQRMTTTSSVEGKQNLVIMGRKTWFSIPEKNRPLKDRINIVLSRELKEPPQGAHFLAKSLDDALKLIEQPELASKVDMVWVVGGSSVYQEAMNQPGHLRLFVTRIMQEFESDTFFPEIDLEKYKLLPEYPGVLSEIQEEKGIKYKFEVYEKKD
Description: Inhibitory activity against rat liver dihydrofolate reductase

[4] = molecular target: T3, Bifunctional dihydrofolate reductase-thymidylate synthase (Toxoplasma gondii, UniProt Q07422)
T3 sequence (Q07422 whole entry): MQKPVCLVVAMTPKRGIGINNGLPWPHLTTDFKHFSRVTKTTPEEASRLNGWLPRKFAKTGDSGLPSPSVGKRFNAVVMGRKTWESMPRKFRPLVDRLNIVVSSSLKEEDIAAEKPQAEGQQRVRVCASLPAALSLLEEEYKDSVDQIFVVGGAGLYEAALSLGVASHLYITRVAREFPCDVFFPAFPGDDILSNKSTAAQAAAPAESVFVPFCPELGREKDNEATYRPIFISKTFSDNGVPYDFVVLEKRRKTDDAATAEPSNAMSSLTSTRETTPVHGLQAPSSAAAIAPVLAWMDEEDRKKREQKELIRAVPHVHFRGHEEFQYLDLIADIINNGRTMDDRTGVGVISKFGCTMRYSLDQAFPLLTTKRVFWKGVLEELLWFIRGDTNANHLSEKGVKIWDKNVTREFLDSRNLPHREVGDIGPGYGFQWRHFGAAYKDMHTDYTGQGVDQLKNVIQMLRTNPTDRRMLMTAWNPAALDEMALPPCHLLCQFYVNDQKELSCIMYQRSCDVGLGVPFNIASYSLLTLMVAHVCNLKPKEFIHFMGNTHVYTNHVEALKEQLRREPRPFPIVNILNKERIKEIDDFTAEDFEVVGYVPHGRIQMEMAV
Description: Inhibitory activity against Toxoplasma gondii dihydrofolate reductase

Toxoplasma gondii [5] = experiment: Inhibitory activity against Toxoplasma gondii cell growth(ca denotes calculated value); assay type: functional, organism-based

Structure (SMILES): COc1cc(NCc2cnc3nc(N)nc(N)c3c2C)cc(OC)c1
IC50 (Toxoplasma gondii [1]): 60 nM
IC50 (Dihydrofolate reductase [2]): 49 nM
IC50 (Dihydrofolate reductase [3]): 31 nM
IC50 [4]: 3.5 nM

Structure (SMILES): Cc1c(CSc2cccc3ccccc23)cnc2nc(N)nc(N)c12
IC50 (Toxoplasma gondii [1]): 40 nM
IC50 (Dihydrofolate reductase [2]): 290 nM
IC50 (Dihydrofolate reductase [3]): 550 nM
IC50 [4]: 30 nM

Structure (SMILES): COc1cc(NCc2ccc3nc(N)nc(N)c3c2C)cc(OC)c1OC [TRIMETREXATE]
IC50 (Toxoplasma gondii [5]): 20 nM

The remaining compounds from weak to strong by IC50 (Dihydrofolate reductase [2]), led by results:

IC50 (Dihydrofolate reductase [2]): 42100 nM
IC50 (Dihydrofolate reductase [3]): 14300 nM
Structure (SMILES): Nc1nc(N)c2nc(CSc3ccc(Cl)cc3)cnc2n1
IC50 (Toxoplasma gondii [1]): > 10000 nM
IC50 [4]: 16800 nM

IC50 (Dihydrofolate reductase [2]): 15800 nM
IC50 (Dihydrofolate reductase [3]): 5700 nM
Structure (SMILES): COc1cccc(C)c1NCc1cnc2nc(N)nc(N)c2n1
IC50 (Toxoplasma gondii [1]): 5000 nM
IC50 [4]: 1850 nM

IC50 (Dihydrofolate reductase [2]): 167 nM
IC50 (Dihydrofolate reductase [3]): 530 nM
Structure (SMILES): CCOc1ccc(OCC)c(N(C)Cc2cnc3nc(N)nc(N)c3c2C)c1
IC50 (Toxoplasma gondii [1]): 60 nM
IC50 [4]: 29 nM

IC50 (Dihydrofolate reductase [2]): 125 nM
IC50 (Dihydrofolate reductase [3]): 370 nM
Structure (SMILES): CCOc1ccc(OCC)c(NCc2cnc3nc(N)nc(N)c3c2C)c1
IC50 (Toxoplasma gondii [1]): 60 nM
IC50 [4]: 22 nM

IC50 (Dihydrofolate reductase [2]): 38 nM
IC50 (Dihydrofolate reductase [3]): 150 nM
Structure (SMILES): COc1ccc(C)c(NCc2cnc3nc(N)nc(N)c3c2C)c1
IC50 (Toxoplasma gondii [1]): 30 nM
IC50 [4]: 23 nM
